Literature values in paper PMC9370779, “Traditional Medicinal Uses, Phytochemistry, Biological Properties, and Health Applications of Vitex sp” (Plants, 2022).
“Also recorded” adds a separate entry of the source. Like-named read-outs stand apart in the source and are kept apart here.

Experiments:
[1] = system: T. b rhodesiense; set-up: method as in PMID 25886869
[2] = set-up: method as in PMID 27118321; settings: ABTS stated for 131
[3] = system: LPS-induced NO production; set-up: method as in doi:10.1177/1934578X19848178; settings: at lower doses/concentrations
[4] = system: human colorectal carcinoma (HCT-116) cells; set-up: method as in PMID 26034885
[5] = system: lymphocytic leukemia (P388) cells; set-up: method as in PMID 9332026
[6] = system: Plasmodium falciparum; set-up: method as in PMID 32438132
[7] = system: human fetal lung fibroblast (MRC15) cells; set-up: method as in PMID 26034885
[8] = set-up: method as in PMID 26034885
[9] = set-up: method as in doi:10.1016/j.phytol.2019.11.018
[10] = set-up: method as in PMID 23150078; settings: 100 mg/kg dose
[11] = system: LPS-stimulated NO production
[12] = system: African green monkey kidney (Vero) cell lines; set-up: method as in PMID 11842334
[13] = system: cyclooxygenase-1 (COX-1); set-up: method as in PMID 11842334
[14] = biological target: cyclooxygenase-2 (COX-2)
[15] = system: LPS-induced NO production; set-up: method as in PMID 31302252

2-(3′,4′-dimethoxyphenyl)-7-hydroxychromen-4-one [Compound 125]
trypanocidal activity [1]: All compounds exhibited moderate trypanocidal activity against T. b rhodesiense

COc1cc(-c2c(O)c(C(=O)O)cc3cc(OC)c(O)cc23)ccc1O [Compound 131, vitexnegheteroin G]
antioxidant activity [2]: antioxidant activity; also recorded: Exhibited antioxidant activities using ABTS scavenging activities

COc1ccc([C@H]2c3c(ccc(O)c3OC)C=C(C=O)[C@@H]2CO)cc1OC [Compound 138, 6-hydroxy-4-(3,4-dimethoxyphenyl)-3-hydroxymethyl-5-methoxy-3,4-dihydro-2-napthaldehyde]
inhibitory effects on NO generation [3]: minor effects of inhibitory

O=c1c(O)c(-c2ccc(O)cc2)oc2cc(O)cc(O)c12 [Compound 124, 2-(4-hydroxyphenyl)-3,5,7-trihydroxychromen-4-one]
trypanocidal activity [1]: All compounds exhibited moderate trypanocidal activity against T. b rhodesiense

C=C1CC(O)C2C(C)(C)CCCC2(C)C1CC(O)C1CC(=O)OC1O (stereo not drawn) [Compound 73, vitexolide C]
cytotoxic activity against HCT-116 cells [4]: cytotoxic activities; also recorded: Exhibited cytotoxic activity on the HCT-116 cell lines

O=C(C=Cc1ccc(O)c(O)c1)OC1C(c2c(O)cc3oc(-c4ccc(O)c(O)c4)cc(=O)c3c2O)OC(CO)C(O)C1O (stereo not drawn) [Compound 117, luteolin 6-C-(2″-O-trans-caffeoylglucoside)]
cytotoxicity against P388 cells, IC50 values [5]: 56 µg/mL

CC(C)C12C=CC3(OO1)C(CCC1C(C)(C)CCCC13C)C2 (stereo not drawn) [Compound 101, abieta-11(12)-ene-9β,13β-endoperoxide]
times more active than compound 100 ([6]; Plasmodium falciparum): 54

C=CC1(C)CCC2C(C)(CCC3C(C)(C)CCCC32C)O1 (stereo not drawn) [Compound 102, 9αH-manoyl oxide]
antimalarial activity (in words) [6]: exhibited antimalarial activity

C=C1CCC2C(C)(C)CCCC2(C)C1CC(O)C1=CC(=O)OC1 (stereo not drawn) [Compound 74, vitexolide E]
cytotoxic activity against MRC15 cells [7]: cytotoxic activities; also recorded: cytotoxic activity
cytotoxic activity against HCT-116 cells [4]: cytotoxic activities; also recorded: cytotoxic activity
antibacterial activity [8]: moderate antibacterial

COC1CC2C(O)C=C(COC(=O)c3ccc(O)cc3)C2C(OC)O1 (stereo not drawn) [Compound 23, ishindacin A]
percentage scavenging activities on stable free radicals [9]: 27.14%

CC(C)C12C=CC3(OO1)C(CCC1C(C)(C)CCCC13C)C2 (stereo not drawn) [Compound 100, abieta-11(12)-ene-9α,13α-endoperoxide]
antimalarial activity (in words) [6]: exhibited antimalarial activity

O=C(C=Cc1ccc(O)c(O)c1)OCC1OC(c2c(O)cc3oc(-c4ccc(O)c(O)c4)cc(=O)c3c2O)C(O)C(O)C1O (stereo not drawn) [Compound 116, luteolin 6-C-(6″-O-trans-caffeoylglucoside)]
cytotoxicity against P388 cells, IC50 values [5]: 14 µg/mL

C=C1CCC2C(C)(C)CCCC2(C)C1CC(O)C1=CC(=O)OC1O (stereo not drawn) [Compound 71, 12-epivitexolide A]
cytotoxic activity against MRC15 cells [7]: cytotoxic activities; also recorded: cytotoxic activity
cytotoxic activity against HCT-116 cells [4]: cytotoxic activities; also recorded: cytotoxic activity
antibacterial activity [8]: moderate antibacterial

CC(C)[C@@]12C=C[C@@]3(OO1)[C@@H](CCC1C(C)(C)C[C@H](OC(=O)CC(=O)O)C[C@@]13C)C2 (stereo partly drawn) [Compound 100a]
antimalarial activity (in words) [6]: exhibited antimalarial activity

C=C(CC(=O)O)C(=O)C[C@H]1C(=C)CC[C@H]2C(C)(C)CCC[C@]12C [Compound 76, vitexolin B]
cytotoxic activity against MRC15 cells [7]: cytotoxic activities; also recorded: cytotoxic activity
cytotoxic activity against HCT-116 cells [4]: cytotoxic activities; also recorded: cytotoxic activity
antibacterial activity [8]: moderate antibacterial

CC1(C)CC[C@@H]([C@@](O)(CO)C2CC[C@@]3(O)C4=CC(=O)[C@@H]5C[C@@H](O)[C@@H](O)C[C@]5(C)C4CC[C@]23C)O1 (stereo partly drawn) [Compound 111, 21-hydroxyshidasterone]
anti-inflammatory activity in rat paw oedema development assay [10]: showed anti-inflammatory activity; also recorded: Exhibited anti-inflammatory activity in rat paw oedema development assay at 100 mg/kg dose

O=C(OC[C@H]1O[C@@H](OC(=O)c2ccc(O)cc2)[C@H](O)[C@@H](O)[C@@H]1O)c1ccc(O)cc1 [Compound 157, 1,6-di-O-4-hydroxybenzoyl-β-D-glucopyranoside]
inhibitory activity on LPS-stimulated NO production [11]: Exhibited antioxidant and NO inhibitory activities.
antioxidant activity via ABTS radical scavenging assay: Exhibited antioxidant and NO inhibitory activities.

COc1cc(C(=O)OC2C[C@@H](O)[C@@H]3C=CO[C@@H](C[C@@H]4O[C@H](CO)[C@@H](O)[C@H](O)[C@H]4O)[C@H]23)ccc1O (stereo partly drawn) [Compound 7, pedunculariside]
cytotoxicity against Vero cell lines [12]: no cytotoxicity
COX-1 inhibition (in words) [13]: low
COX-1 inhibition (in words) ([13]; listed as pedunculariside): little inhibitory effect
IC50 value, inhibition of COX-2 [14]: 150 ± 210 µg/mL
inhibition of COX-2 (in words) [14]: preferential inhibition of COX-2

C=C1CC[C@H]2C(C)(C)CCC[C@]2(C)[C@H]1CC(O)/C(C)=C/C(=O)O (stereo partly drawn) [Compound 75, vitexolin A]
cytotoxic activity against HCT-116 cells [4]: cytotoxic activities; also recorded: Exhibited cytotoxic activity on the HCT-116 cell lines

CC(C)[C@]12C=C[C@]3(OO1)[C@@H](CCC1C(C)(C)C[C@H](OC(=O)CC(=O)O)C[C@@]13C)C2 (stereo partly drawn) [Compound 101a]
antimalarial activity (in words) [6]: exhibited antimalarial activity

CO[C@H]1O[C@H](COC(=O)c2ccc(O)cc2)[C@@H](O)[C@H](O)[C@H]1O [Compound 155, methyl (6-O-4-hydroxybenzoyl)-α-D-glucopyranoside]
inhibitory activity on LPS-stimulated NO production [11]: Exhibited antioxidant and NO inhibitory activities.
antioxidant activity via ABTS radical scavenging assay: Exhibited antioxidant and NO inhibitory activities.

CC1(C)CC[C@@H]([C@@H](CO)C2CC[C@@]3(O)C4=CC(=O)[C@@H]5C[C@@H](O)[C@@H](O)C[C@]5(C)C4CC[C@]23C)O1 (stereo partly drawn) [Compound 112, 11β-hydroxy-20-deoxyshidasterone]
anti-inflammatory activity in rat paw oedema development assay [10]: showed anti-inflammatory activity; also recorded: Exhibited anti-inflammatory activity in rat paw oedema development assay at 100 mg/kg dose

COC1C(COC(=O)C=Cc2ccc(O)c(O)c2)OC(c2c(O)cc3oc(-c4ccc(O)c(O)c4)cc(=O)c3c2O)C(O)C1O (stereo not drawn) [Compound 115, luteolin 6-C-(4″-methyl-6″-O-trans-caffeoylglucoside)]
cytotoxicity against P388 cells, IC50 values [5]: 7.6 µg/mL

O=C(OC[C@H]1O[C@@H](Oc2ccc(O)cc2)[C@H](O)[C@@H](O)[C@@H]1O)c1ccc(O)cc1 [Compound 156, breynioside A]
inhibitory activity on LPS-stimulated NO production [11]: Exhibited antioxidant and NO inhibitory activities.
antioxidant activity via ABTS radical scavenging assay: Exhibited antioxidant and NO inhibitory activities.

CO[C@H]1CC2C(C=O)=C(C)CC2O1 (stereo partly drawn) [Compound 6, Tarumal]
cytotoxicity against Vero cell lines [12]: no cytotoxicity
COX-1 inhibition (in words) [13]: low inhibition

COc1cc(O[C@@H]2O[C@H](COC(=O)c3ccc(O)cc3)[C@@H](O)[C@H](O)[C@H]2O)ccc1O [Compound 158, dunnianoside D]
inhibitory activity on LPS-stimulated NO production [11]: Exhibited antioxidant and NO inhibitory activities.
antioxidant activity via ABTS radical scavenging assay: Exhibited antioxidant and NO inhibitory activities.

C=C1CC(O)C2C(C)(C)CCCC2(C)C1CC(O)C1=CC(=O)OC1O (stereo not drawn) [Compound 72, vitexolide B]
cytotoxic activity against HCT-116 cells [4]: cytotoxic activities; also recorded: Exhibited cytotoxic activity on the HCT-116 cell lines

COc1cc(-c2oc3cc(O)cc(O)c3c(=O)c2OC)ccc1O [Compound 122, 2-(5′-methoxyphenyl)-4′,5,7-trihydroxy-3-methoxychromen-4-one]
trypanocidal activity [1]: All compounds exhibited moderate trypanocidal activity against T. b rhodesiense

COc1cc2c(cc1O)C(c1ccc(OC)c(OC)c1)C(CO)C(C=O)=C2 (stereo not drawn) [Compound 137, 6-hydroxy-4-(3,4-dimethoxyphenyl)-3-hydroxymethyl-7-methoxy-3,4-dihydro-2-naphthaldehyde]
inhibitory effects on NO generation [3]: minor effects of inhibitory

CO[C@H]1C[C@@H]2[C@@H](C(COC(=O)c3ccc(O)cc3)=C[C@H]2O)[C@H](OC)O1 [Compound 24, isonishindacin A]
percentage scavenging activities on stable free radicals [9]: 25.80%

CC1=C(CCC2=CCOC2=O)[C@@]2(C)CC[C@H](O[C@@H]3O[C@H](CO)[C@@H](O)[C@H](O)[C@H]3O)C(C)(C)[C@@H]2CC1 [Compound 97, (3S,5R,10S)-3-[(β-D-glucopyranosyl)oxy]-labd-8,13-dien-16,15-olide]
inhibition of LPS-induced NO production (in words) [15]: strong
IC50 ([15]; read-out: inhibition of NO production, IC50 value): 40.1 ± 1.3 µM

COc1cc(O)c2c(=O)c(OC)c(-c3ccc(O)cc3)oc2c1 [Compound 123, 2-(4′-hydroxyphenyl)-5-hydroxy-3,7-dimethoxy-chromen-4-one]
trypanocidal activity [1]: All compounds exhibited moderate trypanocidal activity against T. b rhodesiense
